# Data from US7056940B2, “Insecticidal 3-(2,6-disubstituted phenyl)-5-[5-arylthien-2-yl]-1,2,4-triazoles” (Dow AgroSciences LLC, priority 2001, dated 2006).
row,melting point [°C],Compound
1,135 to 136,"Cn1nc(-c2c(F)cccc2Cl)nc1-c1cc(-c2ccc(OC(F)(F)F)cc2)sc1Br [Example 3, 3-(2-Chloro-6-fluorophenyl)-5-[2-bromo-5-(4-trifluoromethoxyphenyl)thien-3-yl]-1-methyl-1H-1,2,4-triazole]"
2,53 to 54,"Cn1nc(-c2c(F)cccc2Cl)nc1-c1cc(-c2cccc(C(F)(F)F)c2)sc1Cl [Example 2, 3-(2-Chloro-6-fluorophenyl)-5-[2-chloro-5-(3-trifluoromethylphenyl)thien-3-yl]-1-methyl-1H-1,2,4-triazole]"
